Reference: the NIST ThermoML archive (doi:10.1021/je400332j)

Experiment: xn = mol fraction of the nth substance listed
Details: 101 kPa, Liquid; for mass density: Vibrating tube method; for viscosity: Concentric cylinders viscometry

CCCCCCn1cc[n+](C)c1.F[B-](F)(F)F [1-hexyl-3-methylimidazolium tetrafluoroborate] + CCn1cc[n+](C)c1.F[B-](F)(F)F
Details | mass density [kg/m3] | viscosity [mPa·s]
318.15 K, x2 = 0 | 1130.3 | –
318.15 K, x2 = 0.1009 | 1140.3 | –
318.15 K, x2 = 0.2005 | 1150.9 | –
318.15 K, x2 = 0.3003 | 1162 | –
318.15 K, x2 = 0.4001 | 1173.9 | –
318.15 K, x2 = 0.4999 | 1186.5 | –
318.15 K, x2 = 0.6007 | 1200.2 | –
318.15 K, x2 = 0.7004 | 1214.6 | –
318.15 K, x2 = 0.8001 | 1230.1 | –
318.15 K, x2 = 0.8998 | 1246.7 | –
323.15 K, x2 = 0 | 1127 | 59.03
323.15 K, x2 = 0.1009 | 1136.9 | 53.34
323.15 K, x2 = 0.2005 | 1147.4 | 47.98
323.15 K, x2 = 0.3003 | 1158.5 | 42.8
323.15 K, x2 = 0.4001 | 1170.4 | 38.02
323.15 K, x2 = 0.4999 | 1183 | 33.6
323.15 K, x2 = 0.6007 | 1196.6 | 29.48
323.15 K, x2 = 0.7004 | 1211 | 25.79
323.15 K, x2 = 0.8001 | 1226.4 | 22.4
323.15 K, x2 = 0.8998 | 1242.9 | 19.38
328.15 K, x2 = 0 | 1123.6 | 48.16
328.15 K, x2 = 0.1009 | 1133.5 | 43.73
328.15 K, x2 = 0.2005 | 1144 | 39.57
328.15 K, x2 = 0.3003 | 1155.1 | 35.51
328.15 K, x2 = 0.4001 | 1166.9 | 31.77
328.15 K, x2 = 0.4999 | 1179.4 | 28.27
328.15 K, x2 = 0.6007 | 1192.9 | 25.02
328.15 K, x2 = 0.7004 | 1207.4 | 22.05
328.15 K, x2 = 0.8001 | 1222.7 | 19.31
328.15 K, x2 = 0.8998 | 1239.2 | 16.85
333.15 K, x2 = 0 | 1120.2 | 39.71
333.15 K, x2 = 0.1009 | 1130.1 | 36.3
333.15 K, x2 = 0.2005 | 1140.6 | 33.02
333.15 K, x2 = 0.3003 | 1151.6 | 29.82
333.15 K, x2 = 0.4001 | 1163.4 | 26.83
333.15 K, x2 = 0.4999 | 1176 | 24.04
333.15 K, x2 = 0.6007 | 1189.5 | 21.41
333.15 K, x2 = 0.7004 | 1203.8 | 19.03
333.15 K, x2 = 0.8001 | 1219.1 | 16.8
333.15 K, x2 = 0.8998 | 1235.6 | 14.78
338.15 K, x2 = 0 | 1116.8 | 33.21
338.15 K, x2 = 0.1009 | 1126.7 | 30.47
338.15 K, x2 = 0.2005 | 1137.2 | 27.86
338.15 K, x2 = 0.3003 | 1148.2 | 25.3
338.15 K, x2 = 0.4001 | 1160 | 22.92
338.15 K, x2 = 0.4999 | 1172.5 | 20.64
338.15 K, x2 = 0.6007 | 1186 | 18.52
338.15 K, x2 = 0.7004 | 1200.2 | 16.56
338.15 K, x2 = 0.8001 | 1215.5 | 14.73
338.15 K, x2 = 0.8998 | 1231.9 | 13.05
343.15 K, x2 = 0 | 1113.4 | 28.03
343.15 K, x2 = 0.1009 | 1123.4 | 25.82
343.15 K, x2 = 0.2005 | 1133.8 | 23.74
343.15 K, x2 = 0.3003 | 1144.8 | 21.65
343.15 K, x2 = 0.4001 | 1156.5 | 19.72
343.15 K, x2 = 0.4999 | 1169 | 17.89
343.15 K, x2 = 0.6007 | 1182.4 | 16.11
343.15 K, x2 = 0.7004 | 1196.7 | 14.52
343.15 K, x2 = 0.8001 | 1212 | 13
343.15 K, x2 = 0.8998 | 1228.3 | 11.6
